Test system: normal human fibroblasts
Assay: Dermodecontracting effect: spontaneous contraction of attached dermal equivalents (collagen matrix seeded with normal human fibroblasts)
Type: cell-based
Conditions: dermal equivalent, contraction kinetics 0, 4, 8 and 24 hours
Text: The principle of this test entails studying the effect of the test product on a model of dermal equivalent consisting of a collagen matrix seeded with normal human fibroblasts.
These conditions are suited to mimic, in vitro, the dermal contractile phenomena that occur during facial expressions. Under these conditions, in fact, the cells spontaneously express tensile forces which induce a retraction of the collagen gel. […] The measurement of this surface area makes it possible to evaluate the relaxing effects of the substances brought into contact beforehand with the dermal equivalent.
[…] The experiment is repeated three times.
The dermal equivalents are prepared as described in Asselineau et al., Exp. Cell. Res., 1985,159, 536-539; Models in Dermatology, 1987, vol. 3 pp 1-7, in the following proportions: […]
The collagen used is collagen type I (commercial solution). It is extracted from rat tail or from calf skin by acid hydrolysis and stored in an acidic medium at +4° C.; it polymerizes naturally by heating at 37° C. and by decreasing the degree of acidity. […]
For this, a digital image is acquired for each treated or non-treated dermal equivalent by means of a camera (Camera CCD-Iris Sony DXC-107P) and the surface area is then calculated on each image by means of an image analysis system (Zeiss Axiovision 3.0). […]

| SMILES | reduction of the fibroblast contraction, on average over the duration of the experiment, compared with the control (tested at 1 μM) [%] | reduction of the fibroblast contraction, on average over the duration of the experiment, compared with the control (tested at 10 μM) [%] |
| --- | --- | --- |
| c1ccc(CCCNC2CCN(CCc3ccccc3)CC2)cc1 [Compound No. 1, 1-(2-phenylethyl)-4-[N-(3-phenylpropyl)]aminopiperidine] | 21 | – |
| CC(NC1CCN(CCc2ccccc2)CC1)c1ccccc1 (centres unmarked) [Compound No. 5, 1-(2-phenylethyl)-4-[N-(1-phenyl-ethyl)]aminopiperidine] | – | 40 |

— patent publication US20070265307A1, “Administration of 4-aminopiperidine compounds for inducing and/or stimulating the growth of keratin fibers and/or preventing loss thereof” (L'OREAL, priority 2006, published 2007)
